The values below come from patent US12509446B2, “FYN and VEGFR2 kinase inhibitors” (ROTTAPHARM BIOTECH S.R.L., priority 2019, dated 2025).

The pIC50 is the negative decadic logarithm of the IC50, by convention in mol/L.

One assay has as its system NF-kB. The assay can be described thus: Gene reporter (GR) assay, NF-kB activation after TNFα in JB6 Cl 41-5a (P+) cells. As to conditions: TNFα 2 ng/ml, non toxic concentrations, read-out: Gene reporter (GR) inhibition IC50. Format: cell-based, murine. In short, it runs like this: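 TNFα (2 ng/ml, 4 h) stimulation followed 1 h compound pre-treatment in NF-kB-luciferase-transfected mouse JB6 (P+) epithelial cells. Reporter luminescence and cell viability were read together, each condition in quadruplicate.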

The target of another assay is VEGFR2 (Homo sapiens (Human), UniProt P35968). The assay can be described thus: In vitro VEGFR2 kinase activity assay (Eurofins Cerep). It is filed as biochemical. Conditions: read-out: VEGFR2 KINASE INHIBITION IC50. In short, it runs like this:
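Contract biochemical kinase assay on human VEGFR2 with inhibitors at 10^−8 to 10^−5 M final (some re-tested from 10^−9 M). Activity expressed as percent of no-compound control; IC50 by non-linear regression of mean replicate inhibition curves.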

The target in the next assay is Fyn (Homo sapiens (Human), UniProt P06241). The assay can be described thus: Z′-LYTE in vitro Fyn kinase activity assay. As to conditions: ATP 50 μM; read-out: FYN KINASE INHIBITION IC50. It is filed as biochemical. In short, it runs like this: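 Z′-LYTE FRET format with full-length active Fyn in 50 mM Hepes pH 7.5, 10 mM MgCl2, 1 mM EGTA, 0.01% Brij-35, 1% DMSO final; 60 minutes at 25° C. Percent phosphorylation from 0% and 100% phosphorylation controls; IC50 by non-linear curve fitting of percent inhibition.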
Chain of Fyn (P06241 whole entry): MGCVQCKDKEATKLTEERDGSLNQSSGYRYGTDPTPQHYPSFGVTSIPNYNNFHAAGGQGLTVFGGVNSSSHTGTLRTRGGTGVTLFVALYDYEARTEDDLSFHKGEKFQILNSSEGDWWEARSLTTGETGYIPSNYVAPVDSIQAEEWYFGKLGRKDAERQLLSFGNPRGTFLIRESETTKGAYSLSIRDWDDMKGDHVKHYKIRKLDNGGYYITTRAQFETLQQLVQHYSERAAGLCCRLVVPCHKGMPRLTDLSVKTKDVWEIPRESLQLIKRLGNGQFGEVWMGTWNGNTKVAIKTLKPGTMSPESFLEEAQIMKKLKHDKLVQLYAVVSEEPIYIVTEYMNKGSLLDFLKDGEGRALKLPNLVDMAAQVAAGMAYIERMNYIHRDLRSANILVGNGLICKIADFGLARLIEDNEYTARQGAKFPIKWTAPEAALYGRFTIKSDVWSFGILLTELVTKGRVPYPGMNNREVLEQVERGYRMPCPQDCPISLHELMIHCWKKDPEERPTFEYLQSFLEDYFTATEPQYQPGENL

In the next assay the test system is IL-1β. Briefly: Gene expression in rat articular chondrocytes under IL-1β stimulation, IL-1β. It is filed as cell-based. As to conditions: Rattus norvegicus, Chondrocyte; 6 h incubation. In short, it runs like this: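 Compound concentrations were chosen from toxicity data on primary rat chondrocytes, which were co-incubated with them and 2 ng/ml cytokine in DMEM GlutaMAX I 0.4%. mRNA was measured by 18S-normalised qPCR, at 6 h for IL-1β/ADAMTS-5 and at 24 h for MMP3/MMP13.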

The target of another assay is CDK2 (Homo sapiens (Human), UniProt P24941). Briefly: Kinase selectivity (Eurofins Cerep), CDK2. It is filed as biochemical. Conditions: maximal concentration tested 10 μM. As for the experimental part:
(§1) The assays were performed in Eurofins Cerep (France). The concentration range of the compound under investigation was from 10^−9 M up to 10^−5 M final concentration.

The target in a further assay is FGFR2 (Homo sapiens (Human), UniProt P21802). Conditions: read-out: KINASE SELECTIVITY IC50 FGFR2. As for the experimental part:
as §1

Another assay has as its target Yes (Homo sapiens (Human), UniProt P07947). As to conditions: read-out: KINASE SELECTIVITY IC50 Yes. As for the experimental part:
as §1

The next assay has as its target Jak3 (Homo sapiens (Human), UniProt P52333). As to conditions: read-out: KINASE SELECTIVITY IC50 Jak3. The procedure: as §1
In another assay the target is Src (Homo sapiens (Human), UniProt P12931). Conditions: read-out: KINASE SELECTIVITY IC50 Src. The procedure:
as §1

Another assay concerns the target Lyn-A (Homo sapiens (Human), UniProt P07948). As to conditions: read-out: KINASE SELECTIVITY IC50 Lyn-A. As for the experimental part: as §1

pIC50: −log10 of the molar value. Like-named read-outs stand apart in the source and are kept apart here. Where only a bound is given, the exact number is not on record here.

Chain of FGFR2 (P21802 22-821): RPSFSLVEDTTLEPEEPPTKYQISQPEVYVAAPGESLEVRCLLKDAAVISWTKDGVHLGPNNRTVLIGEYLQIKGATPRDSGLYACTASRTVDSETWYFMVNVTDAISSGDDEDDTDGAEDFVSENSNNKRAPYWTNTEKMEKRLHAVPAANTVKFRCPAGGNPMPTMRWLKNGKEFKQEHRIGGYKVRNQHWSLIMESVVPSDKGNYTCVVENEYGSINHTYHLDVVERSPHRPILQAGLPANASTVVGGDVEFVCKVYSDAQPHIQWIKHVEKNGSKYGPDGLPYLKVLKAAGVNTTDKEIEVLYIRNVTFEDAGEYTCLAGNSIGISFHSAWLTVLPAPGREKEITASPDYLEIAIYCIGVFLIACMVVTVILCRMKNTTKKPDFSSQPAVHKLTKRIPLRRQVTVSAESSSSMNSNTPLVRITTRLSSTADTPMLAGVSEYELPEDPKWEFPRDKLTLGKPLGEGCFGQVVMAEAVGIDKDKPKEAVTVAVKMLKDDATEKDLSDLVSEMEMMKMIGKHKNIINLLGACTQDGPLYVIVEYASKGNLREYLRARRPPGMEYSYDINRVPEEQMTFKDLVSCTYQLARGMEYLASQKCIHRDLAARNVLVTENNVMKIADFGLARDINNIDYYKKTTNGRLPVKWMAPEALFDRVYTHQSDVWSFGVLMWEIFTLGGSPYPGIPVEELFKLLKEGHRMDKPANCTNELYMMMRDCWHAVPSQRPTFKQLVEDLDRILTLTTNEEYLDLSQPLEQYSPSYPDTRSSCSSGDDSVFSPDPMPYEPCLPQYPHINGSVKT
Chain of Src (P12931 whole entry, looked up): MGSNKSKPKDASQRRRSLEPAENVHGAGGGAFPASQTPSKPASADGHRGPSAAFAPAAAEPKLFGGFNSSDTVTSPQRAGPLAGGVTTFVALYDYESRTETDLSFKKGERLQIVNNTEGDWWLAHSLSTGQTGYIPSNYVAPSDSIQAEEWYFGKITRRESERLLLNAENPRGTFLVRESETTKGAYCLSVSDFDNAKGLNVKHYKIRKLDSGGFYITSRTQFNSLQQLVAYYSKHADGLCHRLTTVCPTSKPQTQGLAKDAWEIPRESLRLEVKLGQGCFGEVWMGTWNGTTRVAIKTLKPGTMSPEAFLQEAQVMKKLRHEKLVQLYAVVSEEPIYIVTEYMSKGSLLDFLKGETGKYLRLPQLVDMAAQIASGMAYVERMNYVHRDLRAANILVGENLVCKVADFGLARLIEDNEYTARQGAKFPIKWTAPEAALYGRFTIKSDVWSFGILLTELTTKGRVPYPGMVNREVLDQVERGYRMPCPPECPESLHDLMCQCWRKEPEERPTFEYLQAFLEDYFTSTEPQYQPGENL
Chain of VEGFR2 (P35968 20-1356): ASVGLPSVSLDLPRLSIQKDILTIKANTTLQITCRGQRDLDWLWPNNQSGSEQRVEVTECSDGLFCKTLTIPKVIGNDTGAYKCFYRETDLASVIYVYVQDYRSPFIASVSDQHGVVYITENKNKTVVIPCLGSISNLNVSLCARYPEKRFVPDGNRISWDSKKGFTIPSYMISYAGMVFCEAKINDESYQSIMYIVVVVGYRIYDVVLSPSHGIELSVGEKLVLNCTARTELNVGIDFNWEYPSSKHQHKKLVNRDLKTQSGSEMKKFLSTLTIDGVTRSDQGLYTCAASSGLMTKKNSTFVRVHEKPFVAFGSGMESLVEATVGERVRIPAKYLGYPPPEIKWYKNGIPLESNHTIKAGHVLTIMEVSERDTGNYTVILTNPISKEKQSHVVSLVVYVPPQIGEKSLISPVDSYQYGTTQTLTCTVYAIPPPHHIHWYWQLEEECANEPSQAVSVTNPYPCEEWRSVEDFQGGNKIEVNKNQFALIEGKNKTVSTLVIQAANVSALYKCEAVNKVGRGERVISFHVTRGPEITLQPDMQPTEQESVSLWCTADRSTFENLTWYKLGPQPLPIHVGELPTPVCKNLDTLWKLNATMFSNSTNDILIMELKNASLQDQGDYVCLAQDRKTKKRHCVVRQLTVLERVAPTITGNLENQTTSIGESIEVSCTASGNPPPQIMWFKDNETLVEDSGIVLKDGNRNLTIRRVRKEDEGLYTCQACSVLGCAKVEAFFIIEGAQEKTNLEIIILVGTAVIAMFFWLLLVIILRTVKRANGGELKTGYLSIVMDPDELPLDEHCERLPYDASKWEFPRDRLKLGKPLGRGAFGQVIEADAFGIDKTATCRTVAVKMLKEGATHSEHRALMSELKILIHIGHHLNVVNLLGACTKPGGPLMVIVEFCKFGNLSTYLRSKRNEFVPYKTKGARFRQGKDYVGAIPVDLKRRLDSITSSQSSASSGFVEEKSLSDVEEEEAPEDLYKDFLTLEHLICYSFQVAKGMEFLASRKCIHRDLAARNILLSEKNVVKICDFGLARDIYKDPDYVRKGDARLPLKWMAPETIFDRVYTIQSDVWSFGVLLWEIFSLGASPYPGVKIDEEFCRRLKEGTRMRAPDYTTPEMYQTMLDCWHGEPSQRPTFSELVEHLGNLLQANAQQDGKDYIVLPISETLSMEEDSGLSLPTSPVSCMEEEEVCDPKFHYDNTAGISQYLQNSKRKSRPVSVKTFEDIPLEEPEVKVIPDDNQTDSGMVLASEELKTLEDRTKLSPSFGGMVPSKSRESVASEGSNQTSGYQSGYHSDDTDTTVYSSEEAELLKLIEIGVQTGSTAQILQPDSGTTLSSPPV
Chain of Lyn-A (P07948 whole entry): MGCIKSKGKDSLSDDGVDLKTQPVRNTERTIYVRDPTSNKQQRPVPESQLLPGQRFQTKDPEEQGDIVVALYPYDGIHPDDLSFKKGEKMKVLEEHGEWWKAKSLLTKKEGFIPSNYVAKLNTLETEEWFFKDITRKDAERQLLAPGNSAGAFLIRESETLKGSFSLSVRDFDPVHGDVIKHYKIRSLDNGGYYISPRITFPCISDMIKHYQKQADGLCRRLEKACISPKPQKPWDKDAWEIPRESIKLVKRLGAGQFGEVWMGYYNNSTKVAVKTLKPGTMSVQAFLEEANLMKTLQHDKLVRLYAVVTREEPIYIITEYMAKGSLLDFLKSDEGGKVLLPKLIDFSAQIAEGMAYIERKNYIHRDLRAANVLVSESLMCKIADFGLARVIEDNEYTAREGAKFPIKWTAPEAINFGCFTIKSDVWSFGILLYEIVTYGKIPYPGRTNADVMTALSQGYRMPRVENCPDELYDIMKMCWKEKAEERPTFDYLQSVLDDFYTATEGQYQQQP
Chain of Yes (P07947 whole entry): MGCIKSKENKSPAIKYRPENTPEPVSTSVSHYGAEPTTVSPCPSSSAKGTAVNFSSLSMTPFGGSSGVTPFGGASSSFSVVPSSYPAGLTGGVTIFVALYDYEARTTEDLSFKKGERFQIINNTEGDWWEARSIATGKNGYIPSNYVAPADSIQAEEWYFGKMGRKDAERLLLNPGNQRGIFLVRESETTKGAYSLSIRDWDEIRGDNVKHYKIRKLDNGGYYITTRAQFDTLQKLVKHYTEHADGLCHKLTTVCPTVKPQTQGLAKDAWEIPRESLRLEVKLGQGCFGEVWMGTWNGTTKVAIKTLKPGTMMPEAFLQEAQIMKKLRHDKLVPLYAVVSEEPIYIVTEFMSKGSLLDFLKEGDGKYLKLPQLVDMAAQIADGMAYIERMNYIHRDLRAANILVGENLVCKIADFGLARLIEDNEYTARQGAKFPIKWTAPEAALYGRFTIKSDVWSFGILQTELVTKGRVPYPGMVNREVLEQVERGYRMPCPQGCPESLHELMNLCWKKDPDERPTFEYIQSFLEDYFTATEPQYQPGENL

Regarding `Cc1ccc(NC(=O)c2cccc(C(F)(F)F)c2)cc1CCc1cc(Nc2cnccn2)[nH]n1` [Compound 3, N-(4-methyl-3-(2-(5-(pyrazin-2-ylamino)-1H-pyrazol-3-yl)ethyl)phenyl)-3-(trifluoromethyl)benzamide], the pIC50 in the assay with NF-kB (Mus musculus, JB6 Cl 41-5a) was above 6.60; in the assay with NF-kB, 6.63; on VEGFR2, 8.15; at Fyn, 8.05; in the assay on IL-1β, 8.70; against CDK2, below 5.00. Also, the pIC50 was 5.52 at FGFR2; 7.77 on Yes; 5.75 on Jak3; 6.43 on Src; 7.23 at Lyn-A.
